Data: patent US9163044B2, “Carbon monoxide releasing molecules and uses thereof” (Alfama, Inc., priority 2011, dated 2015)
“Also recorded” adds a separate entry of the source.

Legend:
[1] = CO release kinetics in 50 mM HEPES buffer (pH 7.4), GC-RCP; type: physicochemical; details: for CO equivalents released in 24 hours in the dark / CO equivalents released in 24 hours under light: 50 mM HEPES buffer
Protocol: The quantization of the released CO was performed according to Vreman et al. Anal. Biochem. (2005) 341: 280-289 using a Gas Chromatograph with a Reducing Compound Photometer detector (GC-RCP; Peak Laboratories, Mountain View, Calif.), which allows quantifying CO in gas mixtures at concentrations as low as 1-2 parts per billion (ppb).
General Method for the Determination of CO Release in HEPES Buffer
The CO release kinetics of all compounds was evaluated in 50 mM HEPES buffer (pH 7.4) in a sealed 8-mL vial. […] Since light activation can release CO from molybdenum carbonyl compounds, CO release was determined with solutions in closed, clear glass vials kept under light (on the laboratory bench under regular laboratory lighting) or in the dark (wrapped in aluminum foil and kept inside a cardboard box). Gas samples (from 10 μL up to 500 μL) of the vial headspace (7 ml volume) were removed with a gas-tight syringe at 15, 30, 60, 120, 240, 360 min, and 24 hours after start of the incubation. The gas samples were injected into sealed vials containing air (8 mL) for dilution. The entire gas volume of the vials (8 mL) was transferred with carrier gas to the GC-RCP and analyzed for CO. The GC-RCP had been calibrated with gas containing a known amount of CO. The calibration curve had been established starting with gas from a cylinder which contained synthetic air with 30 ppm CO (Linde, Cat. No. 14960013) and preparing dilutions in 8-mL vials as described above.
The CO equivalents released at each time point from each compound were determined by the following equation: (CO released (pmol)×number of CO ligands in the molecule)/([CO] in the compound (pmol)).

[2] = CO release kinetics in the presence of rat liver microsomes, K-phosphate buffer (pH 7.4); type: in vitro ADME; details: for effect of liver microsomes on CO release / decay (in words): compared with incubation without microsomes; for CO eq. released in 1 h, Microsomes K-phosphate buffer (pH 7.4): with microsomes, 10 μM, 37° C., dark
Protocol: General Method for the CO Release in the Presence of Liver Microsomes
The CO release kinetics of Compounds 1b, 2b, 3b, 4b, and 5b were also evaluated in the presence of rat or human liver microsomes. In a 8-mL vial, the following reagents were combined:
200 μL of 0.5 M potassium phosphate buffer, pH 7.4
50 μL of NADPH regenerating system solution A (BD, Cat. No. 451220)
10 μL of NADPH regenerating system solution B (BD, Cat. No. 451200)
2 μL of 5 mM solution of the compound in DMSO (10 μM final concentration)
The vials were closed and after mixing, the samples were warmed to 37° C. for 5 minutes before an aliquot (25 μL, 0.5 mg protein content) of rat liver microsomes (BD, Cat. No. 452511) or human liver microsomes (BD, Cat. No. 452161) was added to each vial. In parallel analogous vials with all the reagents except the microsomes were prepared. Due to the light-sensitivity of the molybdenum compounds, the reactions were performed in the dark. The samples were incubated at 37° C. and gas samples of the headspace (from 100 μL to 500 μL) of the vials were removed with a gas-tight syringe after 5, 10, 15, 30, and 60 minutes (in some cases samples were also taken at 1, 2, 3 or 4 minutes) upon microsomes addition. The gas samples were then injected into empty sealed vials (8 mL volume) and the amount of CO present in the vials was measured using GC-RCP.
The CO equivalents released at each time point from each compound were determined by the following equation: (CO released (pmol)×number of CO ligands in the molecule)/([CO] in the compound (pmol)). A 1 mL solution of a tri-carbonyl compound, at 50 μM concentration contains a total of 150,000 pmol of CO.

[3] = test system: APAP-induced acute liver failure (ALF) model; assay: APAP-induced acute liver failure (ALF) model, sublethal (300 mg/kg APAP i.p.); type: in vivo, C57Bl/6 male mice; details: for therapeutic activity in acetaminophen induced ALF (in words): mouse, in vivo; for % ALT increase relative to increase with APAP alone Experiment 1 / % ALT increase relative to increase with APAP alone Experiment 2 / Measured ALT values (mean ± S.D.) Experiment 1 / Measured ALT values (mean ± S.D.) Experiment 2: alone or plus NAC (300 mg/kg), at 1 h and 3 h post APAP; for Measured ALT values (mean ± S.D.) Experiment 1 / Measured ALT values (mean ± S.D.) Experiment 2: serum 22 h
Protocol: Compound 3b was studied in a sublethal model for acetaminophen (APAP)-induced Liver Injury.
ALF was induced in C57Bl/6 male mice with a single dose of acetaminophen (300 mg/kg) by i.p. injection. […] Serum alanine aminotransferase (ALT) was measured 22 h after APAP injection (n=5 mice for each group). […] ALF was induced in C57Bl/6 male mice with a single dose of acetaminophen (300 mg/kg) by i.p. injection. […] Twenty-two hours after APAP injection serum ALT was measured (indicated in FIG. 11A), centrilobular sections of mouse livers were cut and stained with hematoxylin and eosin, and the percentage of liver necrosis was determined. The data indicates a dose-dependent reduction of ALT levels of 9% to 83% relative to APAP control, and a dose-dependent reduction of necrosis of 0% to 56% relative to APAP control.
ALF was induced in C57Bl/6 male mice with a single dose of acetaminophen (300 mg/kg) by i.p. injection. […] Alanine aminotransferase (ALT) was measured 22 h after APAP injection (n=4 or n=5 mice for each group).
ALF was induced in C57Bl/6 male mice with a single dose of acetaminophen (300 mg/kg) by i.p. injection. […] Twenty-two hours after APAP injection, serum ALT was measured (indicated in FIGS. 12A-12B), centrilobular sections of mouse livers were cut and stained with hematoxylin and eosin, and the percentage of liver necrosis was determined.
ALF was induced in C57Bl/6 male mice with a single dose of acetaminophen (300 mg/kg) by i.p. injection.
FIG. 14 depicts the effect of late treatment with Compound 3b on serum ALT in ALF model. ALF was induced in C57Bl/6 male mice with a single dose of acetaminophen (300 mg/kg) by i.p. injection. At sixteen hours after APAP injection, the animals were treated with different doses of Compound 3b (0.3, 3, 30 or 60 mg/kg). Alanine aminotransferase (ALT) was measured 22 h after APAP injection (n=4 or n=5 mice for each group).
ALF was induced in C57Bl/6 male mice with a single dose of acetaminophen (300 mg/kg) by i.p. injection. […] Experiments 1 and 2 represent two independent experiments. Alanine aminotransferase (ALT) was measured 22 h after APAP injection (n=4 or n=5 mice for each group). The ALT levels and the respective percentage of ALT increase, relative to the increase observed in mice injected with APAP alone, are presented in Table 7.
ALF was induced in C57Bl/6 male mice with a single dose of acetaminophen (300 mg/kg) by i.p. injection. […] Twenty-two hours after APAP injection, serum ALT was measured and centrilobular sections of mouse livers were cut and stained with hematoxylin and eosin.

Row | Compound | CO equivalents released in 24 hours in the dark [1] | CO equivalents released in 24 hours under light ([1]; under light) | time to release 0.5 CO equivalents under light ([1]; 50 mM HEPES pH 7.4, 50 μM, under light) | effect of liver microsomes on CO release / decay (in words) [2] | CO eq. released in 1 h, Microsomes K-phosphate buffer (pH 7.4) [2] | therapeutic activity in acetaminophen induced ALF (in words) [3] | initial CO release rate, presence versus absence of microsomes ([2]; ratio with/without microsomes) | effect of a single dose administered 16 hours after APAP injury (in words) ([3]; 0.3, 3, 30 or 60 mg/kg at 16 h, ALT 22 h after APAP) | therapeutic effect, 2 doses given at 1 h and 3 h after APAP (in words) ([3]; 2×60 and 2×120 mg/kg, NAC 2×300 mg/kg, evaluated 22 h post APAP) | % ALT increase relative to increase with APAP alone Experiment 1 ([3]; 3b 2 × 60 mg/kg) | % ALT increase relative to increase with APAP alone Experiment 2 ([3]; 3b 2 × 60 mg/kg) | Measured ALT values (mean ± S.D.) Experiment 1 ([3]; 3b 2 × 60 mg/kg) | Measured ALT values (mean ± S.D.) Experiment 2 ([3]; 3b 2 × 60 mg/kg) | % ALT increase relative to increase with APAP alone Experiment 1 ([3]; 3b 2 × 120 mg/kg) | % ALT increase relative to increase with APAP alone Experiment 2 ([3]; 3b 2 × 120 mg/kg) | Measured ALT values (mean ± S.D.) Experiment 1 ([3]; 3b 2 × 120 mg/kg) | Measured ALT values (mean ± S.D.) Experiment 2 ([3]; 3b 2 × 120 mg/kg) | liver histology: necrosis (in words) ([3]; Compound 3b 2×100 or 2×300 mg/kg, NAC 2×300 mg/kg, at one and three hours after APAP, 22 h) | effect on serum ALT when given late after APAP injury (in words) ([3]; five hours and seven hours after APAP, NAC 150 mg/kg, Compound 3b 120 mg/kg) | reduction of necrosis relative to APAP control (in words) ([3]; 60 mg/kg, 1 h after APAP)
1 | CC([N+]#[C][Mo-6]([C]#[O+])([C]#[O+])([C]#[O+])([C]#[N+]C(C)C(=O)O)[C]#[N+]C(C)C(=O)O)C(=O)O (stereo not drawn) [Compound 2b, tricarbonyl[tris(2-isocyanopropionic acid)]Mo(0)] | 1.2 CO equivalents | 1.5 CO equivalents | about 90 minutes | accelerated the decay | (0.9CO eq. in 1 h) | still retains therapeutic activity although lower than that of Compound 3b | – | – | – | – | – | – | – | – | – | – | – | – | – | –
2 | [C-]#[N+]C(C)(C)C(=O)O.[C-]#[N+]C(C)(C)C(=O)O.[C-]#[N+]C(C)(C)C(=O)O.[C-]#[O+].[C-]#[O+].[C-]#[O+].[Mo] [Compound 3b, tricarbonyl[tris(2-isocyano-2-methyl-propionic acid)]Mo(0)] | 1.3 CO equivalents | 1.8 CO equivalents | – | increased rate of CO release | (1.5CO eq. in 1 h) | strong therapeutic activity | approximately 4 times faster | dose-dependent therapeutic effect | highly therapeutic; also recorded: as effective as NAC | 57.2 ± 14.5% | 45.0 ± 8.1% | 5180 ± 1312 U/L | 5500 ± 987 U/L | 49.5 ± 7.0% | 35.7 ± 7.6% | 4480 ± 630 U/L | 4360 ± 926 U/L | very little if any necrosis | therapeutic | –
3 | tricarbonyl[tris(isocyanoacetic acid)]Mo(0) [Compound 1b] | 1.4 CO equivalents | 1.6 CO equivalents | – | increased rate of CO release | (1.1CO eq. in 1 h) | lack of activity | – | – | – | – | – | – | – | – | – | – | – | – | – | does not reduce necrosis
